Results: ChEMBL document CHEMBL4823243, “Synergistic induction of apoptosis in resistant head and neck carcinoma and leukemia by alkoxyamide-based histone deacetylase inhibitors” (Eur J Med Chem, 2021)
Active and inactive are the calls of the source. The calls are words filed in the database; no cut-off is given here.

Key:
Histone deacetylase [1] = experiment: Inhibition of HDAC in human A2780 cells using Boc-Lys (acetyl)-AMC as substrate preincubated for 18 hrs followed by susbtrate addition and measured after 3 hrs by fluorescence microplate reader assay; format: cell-based
CAL-27 = experiment: Antiproliferative activity against human CAL-27 cells assessed as reduction in cell viability after 72 hrs by MTT assay; format: functional, cell-based; conditions: CAL-27, 72 h
A2780 = experiment: Antiproliferative activity against human A2780 cells assessed as reduction in cell viability after 72 hrs by MTT assay; format: functional, cell-based; conditions: A2780, 72 h
Histone deacetylase [2] = experiment: Inhibition of HDAC in human CAL-27 cells using Boc-Lys (acetyl)-AMC as substrate preincubated for 18 hrs followed by susbtrate addition and measured after 3 hrs by fluorescence microplate reader assay; format: cell-based
Histone deacetylase 8 = biological target: T1, Histone deacetylase 8 (Homo sapiens, UniProt Q9BY41); experiment: Inhibition of recombinant human C-terminal His-fusion tagged/N-terminal Strep2 tagged HDAC8 (1 to 377 residues) expressed in insect cells using Boc-Lys(TFA)-AMC as substrate preincubated for 5 mins followed by substrate addition measured after 90 mins by fluorimetry
T1 sequence (Q9BY41 whole entry): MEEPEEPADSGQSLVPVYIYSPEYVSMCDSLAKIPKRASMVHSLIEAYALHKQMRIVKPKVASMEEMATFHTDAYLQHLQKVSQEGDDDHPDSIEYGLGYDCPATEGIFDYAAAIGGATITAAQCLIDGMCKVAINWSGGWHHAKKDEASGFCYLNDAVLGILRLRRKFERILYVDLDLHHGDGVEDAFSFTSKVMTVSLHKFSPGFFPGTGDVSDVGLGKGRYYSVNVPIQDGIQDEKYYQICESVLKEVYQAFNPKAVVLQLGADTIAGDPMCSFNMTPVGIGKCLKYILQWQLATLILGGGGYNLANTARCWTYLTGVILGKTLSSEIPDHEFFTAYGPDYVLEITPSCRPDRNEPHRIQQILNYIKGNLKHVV

Histone deacetylase [3] = experiment: Inhibition of HDAC in human Cal27CisR cells assessed as potentiation of cisplatin-induced cytotoxicity by measuring cisplatin IC50 at 3 to 4 uM pretreated for 48 hrs followed by cisplatin addition and measured after 72 hrs by MTT assay (reference value: 3.57 uM); format: cell-based
Histone deacetylase 4 = Histone deacetylase 4 (Homo sapiens, UniProt P56524); experiment: Inhibition of recombinant human N-terminal GST-fusion tagged/C-terminal GST-tagged HDAC4 (627 to 1084 residues) expressed in baculovirus infected insect cells using Boc-Lys(TFA)-AMC as substrate preincubated for 5 mins followed by substrate addition measured after 90 mins by fluorimetry
Histone deacetylase 2 = Histone deacetylase 2 (Homo sapiens, UniProt Q92769); experiment: Inhibition of recombinant human full length C-terminal GST-fusion tagged HDAC2 expressed in baculovirus infected insect cells using Boc-Lys(Ac)-AMC as substrate preincubated for 5 mins followed by substrate addition measured after 90 mins by fluorimetry; format: cell-based
[4] = biological target: T2, Histone deacetylase (Homo sapiens) (UniProt Q13547+O15379+Q9UBN7+Q92769+Q9UQL6+Q8WUI4+Q9BY41+Q96DB2+P56524+Q9UKV0+Q969S8); experiment: Inhibition of HDAC in human CAL-27 cells assessed as potentiation of cisplatin-induced cytotoxicity by measuring cisplatin IC50 at 3 to 4 uM pretreated for 48 hrs followed by cisplatin addition and measured after 72 hrs by MTT assay relative to cisplatin alone; format: cell-based; conditions: dose 3-4 µM, time 120.0 hrs
Histone deacetylase [5] = experiment: Inhibition of HDAC in human CAL-27 cells assessed as potentiation of cisplatin-induced cytotoxicity by measuring cisplatin IC50 at 3 to 4 uM pretreated for 48 hrs followed by cisplatin addition and measured after 72 hrs by MTT assay (reference value: 3.57 uM); format: cell-based
[6] = biological target: T2, Histone deacetylase (Homo sapiens); experiment: Inhibition of HDAC in human Cal27CisR cells assessed as potentiation of cisplatin-induced cytotoxicity by measuring cisplatin IC50 at 3 to 4 uM pretreated for 48 hrs followed by cisplatin addition and measured after 72 hrs by MTT assay relative to cisplatin alone; format: cell-based; conditions: dose 3-4 µM, time 120.0 hrs
[7] = biological target: T3, Protein deacetylase HDAC6 (Homo sapiens, UniProt Q9UBN7); experiment: Inhibition of recombinant human N-terminal GST-tagged HDAC6 (1 to 1215 residues) expressed in baculovirus infected insect cells using Boc-Lys(Ac)-AMC as substrate preincubated for 5 mins followed by substrate addition measured after 90 mins by fluorimetry
T3 sequence (Q9UBN7 whole entry): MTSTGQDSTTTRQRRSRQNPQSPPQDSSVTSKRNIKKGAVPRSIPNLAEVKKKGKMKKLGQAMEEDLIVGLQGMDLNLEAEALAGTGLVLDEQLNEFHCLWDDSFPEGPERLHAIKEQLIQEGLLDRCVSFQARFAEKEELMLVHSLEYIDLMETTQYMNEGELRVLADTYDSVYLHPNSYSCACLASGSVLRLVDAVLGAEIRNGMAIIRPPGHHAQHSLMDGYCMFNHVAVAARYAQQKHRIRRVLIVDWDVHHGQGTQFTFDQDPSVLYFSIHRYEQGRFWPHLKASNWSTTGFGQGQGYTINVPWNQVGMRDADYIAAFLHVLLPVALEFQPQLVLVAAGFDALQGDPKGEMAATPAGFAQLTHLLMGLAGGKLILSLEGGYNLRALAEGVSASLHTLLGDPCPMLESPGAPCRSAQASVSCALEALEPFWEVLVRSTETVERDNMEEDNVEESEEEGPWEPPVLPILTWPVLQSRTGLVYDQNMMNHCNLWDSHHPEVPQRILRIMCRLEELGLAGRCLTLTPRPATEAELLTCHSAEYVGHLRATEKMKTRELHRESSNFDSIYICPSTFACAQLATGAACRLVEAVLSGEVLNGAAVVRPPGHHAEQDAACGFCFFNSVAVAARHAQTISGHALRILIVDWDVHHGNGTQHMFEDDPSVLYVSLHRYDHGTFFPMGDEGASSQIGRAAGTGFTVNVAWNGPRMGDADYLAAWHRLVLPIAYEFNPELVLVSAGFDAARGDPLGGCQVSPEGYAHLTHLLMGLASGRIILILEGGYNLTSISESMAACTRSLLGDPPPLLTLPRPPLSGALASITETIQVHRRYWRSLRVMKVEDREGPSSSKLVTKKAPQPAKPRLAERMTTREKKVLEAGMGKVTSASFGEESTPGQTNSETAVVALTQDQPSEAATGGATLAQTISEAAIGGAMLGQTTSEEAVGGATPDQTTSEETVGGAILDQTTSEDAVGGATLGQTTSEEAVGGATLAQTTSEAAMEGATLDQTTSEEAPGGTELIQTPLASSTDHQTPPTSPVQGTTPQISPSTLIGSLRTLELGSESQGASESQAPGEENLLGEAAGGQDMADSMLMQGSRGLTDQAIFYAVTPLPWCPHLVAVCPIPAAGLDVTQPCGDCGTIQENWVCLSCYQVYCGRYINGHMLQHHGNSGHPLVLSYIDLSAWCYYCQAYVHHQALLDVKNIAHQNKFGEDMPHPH

[8] = biological target: T4, Protein deacetylase HDAC6 (Homo sapiens) (UniProt Q9UBN7); experiment: Inhibition of HDAC6 in human CAL-27 cells assessed as accumulation of acetylated alpha-tubulin at 1 uM for 24 hrs by Western blot analysis; format: cell-based
T4 sequence (whole entry): T3 sequence (Q9UBN7 whole entry)

[9] = Inhibition of Class 1/2b HDAC in human HL-60 cells by HDAC-Glo assay; format: cell-based
HL-60 = experiment: Antiproliferative activity against human HL-60 cells assessed as reduction in cell viability for 72 hrs by Celltitre-Glo luminescent assay; format: functional, cell-based; conditions: HL-60, 72 h
Histone deacetylase [10] = experiment: Inhibition of HDAC in human CAL-27 cells assessed as potentiation of cisplatin-induced cytotoxicity by measuring cisplatin IC50 at 0.3 to 0.5 uM pretreated for 48 hrs followed by cisplatin addition and measured after 72 hrs by MTT assay (reference value: 3.57 uM); format: cell-based
[11] = biological target: T4, Protein deacetylase HDAC6 (Homo sapiens); experiment: Inhibition of HDAC6 in human CAL-27 cells assessed as accumulation of acetylated alpha-tubulin at 5 uM for 24 hrs by Western blot analysis; format: cell-based
Histone deacetylase [12] = experiment: Inhibition of HDAC in human Cal27CisR cells assessed as potentiation of cisplatin-induced cytotoxicity by measuring cisplatin IC50 at 0.3 to 0.5 uM pretreated for 48 hrs followed by cisplatin addition and measured after 72 hrs by MTT assay (reference value: 3.57 uM); format: cell-based
[13] = biological target: T2, Histone deacetylase (Homo sapiens); experiment: Inhibition of HDAC in human Cal27CisR cells assessed as potentiation of cisplatin-induced cytotoxicity by measuring fold reduction in cisplatin IC50 at 0.3 to 0.5 uM pretreated for 48 hrs followed by cisplatin addition and measured after 72 hrs by MTT assay relative to cisplatin alone; format: cell-based; conditions: dose 0.3-0.5 µM, time 120.0 hrs
[14] = biological target: T2, Histone deacetylase (Homo sapiens); experiment: Inhibition of HDAC in human CAL-27 cells assessed as potentiation of cisplatin-induced cytotoxicity by measuring fold reduction in cisplatin IC50 at 0.3 to 0.5 uM pretreated for 48 hrs followed by cisplatin addition and measured after 72 hrs by MTT assay relative to cisplatin alone; format: cell-based; conditions: dose 0.3-0.5 µM, time 120.0 hrs

Histone deacetylase 4, sequence (P56524 whole entry, the tested form may be a part): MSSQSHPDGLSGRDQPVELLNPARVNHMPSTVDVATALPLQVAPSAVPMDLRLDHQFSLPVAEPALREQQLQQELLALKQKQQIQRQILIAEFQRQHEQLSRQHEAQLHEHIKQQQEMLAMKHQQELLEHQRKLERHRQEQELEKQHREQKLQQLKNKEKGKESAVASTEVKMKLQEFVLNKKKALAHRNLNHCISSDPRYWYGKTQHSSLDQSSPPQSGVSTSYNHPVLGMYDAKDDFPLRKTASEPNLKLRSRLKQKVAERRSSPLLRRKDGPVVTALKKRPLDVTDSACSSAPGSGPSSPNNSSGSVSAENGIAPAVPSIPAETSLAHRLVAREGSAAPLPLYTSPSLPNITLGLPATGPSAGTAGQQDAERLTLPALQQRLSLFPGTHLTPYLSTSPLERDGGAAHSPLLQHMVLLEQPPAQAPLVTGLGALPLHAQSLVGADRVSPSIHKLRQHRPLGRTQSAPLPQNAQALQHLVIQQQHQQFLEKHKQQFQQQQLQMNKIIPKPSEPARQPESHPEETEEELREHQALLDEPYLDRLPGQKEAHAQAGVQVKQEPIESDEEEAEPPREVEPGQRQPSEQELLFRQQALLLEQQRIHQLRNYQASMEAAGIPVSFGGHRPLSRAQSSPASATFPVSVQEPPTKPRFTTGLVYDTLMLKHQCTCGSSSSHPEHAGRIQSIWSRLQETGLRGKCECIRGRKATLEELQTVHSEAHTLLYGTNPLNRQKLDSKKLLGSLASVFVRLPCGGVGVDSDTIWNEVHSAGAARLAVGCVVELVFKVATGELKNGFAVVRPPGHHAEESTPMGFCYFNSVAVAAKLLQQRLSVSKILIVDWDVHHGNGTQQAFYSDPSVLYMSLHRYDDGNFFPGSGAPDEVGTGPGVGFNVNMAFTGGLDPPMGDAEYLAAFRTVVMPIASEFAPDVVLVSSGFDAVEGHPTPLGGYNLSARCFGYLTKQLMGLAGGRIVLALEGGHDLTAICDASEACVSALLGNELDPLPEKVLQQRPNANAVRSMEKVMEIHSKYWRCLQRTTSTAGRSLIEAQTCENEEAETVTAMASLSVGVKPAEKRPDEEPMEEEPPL
Histone deacetylase 2, sequence (Q92769 whole entry, the tested form may be a part): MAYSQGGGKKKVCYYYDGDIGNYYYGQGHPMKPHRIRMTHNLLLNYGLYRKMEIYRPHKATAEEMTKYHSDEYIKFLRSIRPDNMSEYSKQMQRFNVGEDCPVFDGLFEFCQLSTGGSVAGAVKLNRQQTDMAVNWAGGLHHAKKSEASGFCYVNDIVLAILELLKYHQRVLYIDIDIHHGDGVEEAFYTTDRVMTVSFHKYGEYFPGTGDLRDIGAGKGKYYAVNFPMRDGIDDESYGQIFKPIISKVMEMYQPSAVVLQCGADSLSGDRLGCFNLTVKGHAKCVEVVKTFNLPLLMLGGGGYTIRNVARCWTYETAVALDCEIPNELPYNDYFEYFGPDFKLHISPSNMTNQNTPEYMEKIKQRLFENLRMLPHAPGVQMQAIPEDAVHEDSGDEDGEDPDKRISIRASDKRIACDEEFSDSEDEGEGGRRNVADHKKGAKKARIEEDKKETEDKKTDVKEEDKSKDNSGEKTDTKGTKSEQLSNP

SMILES | IC50 (Histone deacetylase [1]) [µM] | IC50 (CAL-27) [nM] | IC50 (A2780) [µM] | IC50 (Histone deacetylase [2]) [µM] | further results
O=C(CCCCCONC(=O)c1ccc2[nH]ccc2c1)NO | 0.85 | 1300 | 7.5 | 0.45 | –
O=C(CCCCCONC(=O)c1cc2ccccc2s1)NO | 1.58 | 500 | 4.88 | 2.25 | –
O=C(CCCCCONC(=O)c1cc2ccccc2o1)NO | 1.71 | 780 | 5.56 | 1.99 | –
O=C(CCCCCONC(=O)c1cnc2ccccc2n1)NO | 0.19 | 800 | 7.7 | 0.49 | IC50 (Histone deacetylase 8): 7.95 µM; IC50 (Histone deacetylase [3]): 18.7 µM; IC50 (Histone deacetylase 4): 60.8 µM; IC50 (Histone deacetylase 2): 44 nM; Ratio IC50 [4]: 1.23; IC50 (Histone deacetylase [5]): 2.9 µM; Ratio IC50 [6]: 2.6; IC50 [7]: 18 nM
O=C(CCCCCONC(=O)c1cccc2ccccc12)NO | 2.39 | 4200 | 7.6 | 1.89 | –
O=C(CCCCCONC(=O)c1nc2ccccc2s1)NO | 2.7 | 6330 | 21.8 | 3.16 | –
O=C(CCCCCONC(=O)c1ccnc2ccccc12)NO | 7.68 | 11900 | 70 | 5.97 | –
Nc1ccccc1NC(=O)c1ccc(CNC(=O)OCc2cccnc2)cc1 | – | – | – | – | inhibition [8]: inactive
O=C(CCCCCONC(=O)c1nc2ccccc2[nH]1)NO | 9.08 | 58200 | > 100 | 4.17 | –
O=C(CCCCCCNC(=O)c1cnc(N(c2ccccc2)c2ccccc2)nc1)NO [RICOLINOSTAT] | – | – | – | – | IC50 [9]: 902 nM; IC50 (HL-60): > 10000 nM
CC(C)(C)OC(=O)Nc1ccc(-c2cc(C(=O)NCCCCCCC(=O)NO)no2)cc1 | – | – | – | – | IC50 [9]: 109 nM; IC50 (HL-60): 594 nM
O=C(CCCCCONC(=O)c1ccc2cc[nH]c2c1)NO | 0.6 | 4300 | 11.3 | 0.4 | –
O=C(CCCCCONC(=O)Cc1ccc2ccccc2c1)NO | 3.71 | 3570 | 6.28 | 1.72 | –
O=C(CCCCCONC(=O)c1cccc2[nH]ccc12)NO | 0.74 | 1200 | 5.3 | 0.48 | –
O=C(CCCCCONC(=O)c1cccc2cc[nH]c12)NO | 0.64 | 1000 | 1 | 0.46 | –
O=C(CCCCCONC(=O)c1[nH]nc2ccccc12)NO | 0.71 | 1800 | 7.6 | 0.43 | –
O=C(CCCCCONC(=O)c1ccc2ccccc2c1)NO | 0.35 | 180 | 1 | 0.1 | IC50 (Histone deacetylase [10]): 2.32 µM; IC50 (Histone deacetylase 8): 3.79 µM; IC50 (Histone deacetylase 4): 51.8 µM; inhibition [11]: Active; IC50 (Histone deacetylase 2): 41 nM; IC50 (Histone deacetylase [12]): 9.53 µM; Ratio IC50 [13]: 5.09; IC50 [7]: 11 nM; Ratio IC50 [14]: 1.54
O=C(CCCCCONC(=O)c1c[nH]c2ccccc12)NO | 1.36 | 1700 | 7.8 | 0.81 | –
